{"source": "patent US8461086B2", "about": "“Microcapsule composition for inhibiting an ethylene response in plants, method for preparing microcapsules, and method using the microcapsule composition” (Lytone Enterprise, Inc., priority 2009, dated 2013)", "origin": "cited, not measured here", "key": {"[1]": {"test_system": "plants", "conditions": "applied to plants"}, "[2]": {"test_system": "humans and livestock", "conditions": "within the effective concentration range"}}}
{"smiles": "CC1=CC1", "note": "[Example 1-MCP, 1-methylcyclopropene]", "values": [{"measurement": "effective dosages", "setting": "[1]", "value": "0.1 to 1.0 ppm (vol/vol)"}, {"measurement": "harm to humans and livestock", "setting": "[2]", "value": "does no harm"}]}
